# Assays:
# Format in all cases: in vivo
# [1] = tested on: field corn (Zea mays L., var. Dekalb 535, CORN); assay: Post-emerge test, crop safety; details: post-emerge, 14 days after application, rating scale 0-100
# In short: (§1)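 Plants grown in 10 cm pots of sandy loam mix received acetone-dissolved compounds through a moving flat-fan nozzle. Doses ranged from 15 to 1000 g ai/ha. Pre-emerge pots were seeded one day earlier, post-emerge pots 8–21 days earlier. Fourteen days on, each pot was graded 0–100 for damage.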
# [2] = tested on: upland rice (Oryza sp., var. Tebonnet, RICE); assay: Post-emerge test, crop safety; details: post-emerge, 14 days after application, rating scale 0-100
# In short: as §1
# [3] = tested on: velvetleaf (Abutilon theophrasti, ABUTH); assay: Pre-emerge test, greenhouse herbicide activity screening; details: pre-emerge, 14 days after application, rating scale 0-100
# In short: (§2)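 Rating: 0–100 visual injury, 14 DAA. Application: acetone, 187 l/ha, 15–1000 g ai/ha, flat-fan track sprayer with nozzle 40–45 cm above soil or canopy. Post-emerge runs used 0.25% v/v surfactant on 2–3 leaf plants.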
# [4] = tested on: lambsquarters (Chenopodium album, CHEAL); assay: as above; details: pre-emerge, 14 days after application, rating scale 0-100
# In short: as §2
# [5] = tested on: sicklepod (Cassia obtusifolia, CASOB); assay: as above; details: pre-emerge, 14 days after application, rating scale 0-100
# In short: as §2
# [6] = tested on: large crabgrass (Digitaria sanguinalis, DIGSA); assay: as above; details: pre-emerge, 14 days after application, rating scale 0-100
# In short: as §2
# [7] = tested on: ivyleaf morningglory (Ipomoea hederacea, IPOHE); assay: as above; details: pre-emerge, 14 days after application, rating scale 0-100
# In short: as §2
# [8] = tested on: green foxtail (Setaria viridis, SETVI); assay: as above; details: pre-emerge, 14 days after application, rating scale 0-100
# In short: as §2
# [9] = tested on: johnsongrass (Sorghum halepense, SORHA); assay: as above; details: pre-emerge, 14 days after application, rating scale 0-100
# In short: as §2
# [10] = tested on: barnyardgrass (Echinochloa crus-galli, ECHCG); assay: as above; details: pre-emerge, 14 days after application, rating scale 0-100
# In short: as §2
# [11] = tested on: field corn (Zea mays L., var. Dekalb 535, CORN); assay: Pre-emerge test, crop safety; details: pre-emerge, 14 days after application, rating scale 0-100
# In short: (§3)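 Applied at 15–1000 g ai/ha from acetone in 187 l/ha spray volume. Post-emergence applications included 0.25% v/v non-ionic surfactant and reached plants sown 8–21 days before. Pre-emergence applications were incorporated by surface watering. Efficacy or crop damage was rated on a 0–100 scale after 14 days.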
# [12] = tested on: upland rice (Oryza sp., var. Tebonnet, RICE); assay: Pre-emerge test, crop safety; details: pre-emerge, 14 days after application, rating scale 0-100
# In short: as §3
# [13] = tested on: redroot pigweed (Amaranthus retroflexus, AMARE); assay: Pre-emerge test, greenhouse herbicide activity screening; details: pre-emerge, 14 days after application, rating scale 0-100
# In short: (§4)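 Compounds in acetone were track-sprayed at 15-1000 g ai/ha (187 l/ha) on sandy loam pots: pre-emerge one day after seeding, post-emerge at 2-3 leaf stage with 0.25% v/v non-ionic surfactant. Phytotoxicity was rated 14 days later on a 0 (no damage) to 100 (complete death) scale.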
# [14] = tested on: velvetleaf (Abutilon theophrasti, ABUTH); assay: Post-emerge test, greenhouse herbicide activity screening; details: post-emerge, 14 days after application, rating scale 0-100
# In short: as §4
# [15] = tested on: redroot pigweed (Amaranthus retroflexus, AMARE); assay: as above; details: post-emerge, 14 days after application
# In short: as §4
# [16] = tested on: lambsquarters (Chenopodium album, CHEAL); assay: as above; details: post-emerge, 14 days after application, rating scale 0-100
# In short: as §4
# [17] = tested on: sicklepod (Cassia obtusifolia, CASOB); assay: as above; details: post-emerge, 14 days after application, rating scale 0-100
# In short: as §4
# [18] = tested on: large crabgrass (Digitaria sanguinalis, DIGSA); assay: as above; details: post-emerge, 14 days after application, rating scale 0-100
# In short: as §4
# [19] = tested on: ivyleaf morningglory (Ipomoea hederacea, IPOHE); assay: as above; details: post-emerge, 14 days after application, rating scale 0-100
# In short: as §4
# [20] = tested on: green foxtail (Setaria viridis, SETVI); assay: as above; details: post-emerge, 14 days after application, rating scale 0-100
# In short: as §4
# [21] = tested on: johnsongrass (Sorghum halepense, SORHA); assay: as above; details: post-emerge, 14 days after application, rating scale 0-100
# In short: as §4
# [22] = tested on: barnyardgrass (Echinochloa crus-galli, ECHCG); assay: as above; details: post-emerge, 14 days after application, rating scale 0-100
# In short: as §4
smiles,measurement,setting,value
COc1c(Cl)cc(F)c(-n2c(=O)cc(C(F)(F)F)n(C)c2=O)c1SCCO [17-5],Post-emerge Herbicidal Activity CORN (crop damage rating),[1]; 63 g ai/ha,0
same,Post-emerge Herbicidal Activity CORN (crop damage rating),[1]; 250 g ai/ha,10
same,Post-emerge Herbicidal Activity RICE (crop damage rating),[2]; 63 g ai/ha,0
same,Post-emerge Herbicidal Activity RICE (crop damage rating),[2]; 250 g ai/ha,0
same,phytotoxicity rating ABUTH,[3]; 63 g ai/ha,60
same,phytotoxicity rating ABUTH,[3]; 250 g ai/ha,100
same,phytotoxicity rating CHEAL,[4]; 63 g ai/ha,90
same,phytotoxicity rating CHEAL,[4]; 250 g ai/ha,100
same,phytotoxicity rating CASOB,[5]; 63 g ai/ha,0
same,phytotoxicity rating CASOB,[5]; 250 g ai/ha,30
same,phytotoxicity rating DIGSA,[6]; 63 g ai/ha,0
same,phytotoxicity rating DIGSA,[6]; 250 g ai/ha,60
same,phytotoxicity rating IPOHE,[7]; 63 g ai/ha,30
same,phytotoxicity rating IPOHE,[7]; 250 g ai/ha,35
same,phytotoxicity rating SETVI,[8]; 63 g ai/ha,0
same,phytotoxicity rating SETVI,[8]; 250 g ai/ha,50
same,phytotoxicity rating SORHA,[9]; 63 g ai/ha,0
same,phytotoxicity rating SORHA,[9]; 250 g ai/ha,20
same,phytotoxicity rating ECHCG,[10]; 63 g ai/ha,0
same,phytotoxicity rating ECHCG,[10]; 250 g ai/ha,0
same,phytotoxicity rating CORN,[11]; 63 g ai/ha,0
same,phytotoxicity rating CORN,[11]; 250 g ai/ha,0
same,phytotoxicity rating RICE,[12]; 63 g ai/ha,0
same,phytotoxicity rating RICE,[12]; 250 g ai/ha,10
same,phytotoxicity rating AMARE,[13]; 63 g ai/ha,80
same,phytotoxicity rating AMARE,[13]; 250 g ai/ha,100
same,Post-emerge Herbicidal Activity ABUTH (phytotoxicity rating),[14]; 63 g ai/ha,50
same,Post-emerge Herbicidal Activity ABUTH (phytotoxicity rating),[14]; 250 g ai/ha,80
same,Post-emerge Herbicidal Activity AMARE (phytotoxicity rating),"[15]; 63 g ai/ha, rating scale 0-100 (0 no damage, 100 complete death)",10
same,Post-emerge Herbicidal Activity AMARE (phytotoxicity rating),"[15]; 250 g ai/ha, rating scale 0-100",40
same,Post-emerge Herbicidal Activity CHEAL (phytotoxicity rating),[16]; 63 g ai/ha,40
same,Post-emerge Herbicidal Activity CHEAL (phytotoxicity rating),[16]; 250 g ai/ha,80
same,Post-emerge Herbicidal Activity CASOB (phytotoxicity rating),[17]; 63 g ai/ha,10
same,Post-emerge Herbicidal Activity CASOB (phytotoxicity rating),[17]; 250 g ai/ha,20
same,Post-emerge Herbicidal Activity DIGSA (phytotoxicity rating),[18]; 63 g ai/ha,0
same,Post-emerge Herbicidal Activity DIGSA (phytotoxicity rating),[18]; 250 g ai/ha,0
same,Post-emerge Herbicidal Activity IPOHE (phytotoxicity rating),[19]; 63 g ai/ha,30
same,Post-emerge Herbicidal Activity IPOHE (phytotoxicity rating),[19]; 250 g ai/ha,70
same,Post-emerge Herbicidal Activity SETVI (phytotoxicity rating),[20]; 63 g ai/ha,0
same,Post-emerge Herbicidal Activity SETVI (phytotoxicity rating),[20]; 250 g ai/ha,0
same,Post-emerge Herbicidal Activity SORHA (phytotoxicity rating),[21]; 63 g ai/ha,0
same,Post-emerge Herbicidal Activity SORHA (phytotoxicity rating),[21]; 250 g ai/ha,0
same,Post-emerge Herbicidal Activity ECHCG (phytotoxicity rating),[22]; 63 g ai/ha,0
same,Post-emerge Herbicidal Activity ECHCG (phytotoxicity rating),[22]; 250 g ai/ha,0
